ChEMBL document CHEMBL1201862, “PubChem BioAssay data set” (2004)
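Exposure lasted 48 hours, with cells grown in 96-well plates and compounds tested at five concentrations. The concentration for 50% growth inhibition is given as GI50.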 Activity calls are given as the source filed them. Rule as the data show it: active = GI50 up to about 1.1 µM and inactive = higher.

Assays:
Test in all cases: NCI anticancer screen, dose series, 48 h
RXF 631 = test system: RXF 631
DMS-114 = test system: DMS-114
KM-20L2 = test system: KM-20L2
SNB-78 = test system: SNB-78
DMS-273 = test system: DMS-273
LXFL 529 = test system: LXFL 529
DLD-1 = test system: DLD-1
HOP-18 = test system: HOP-18
XF498 = test system: XF498

## O=C(N/N=C(/c1nc2ccc(Cl)cc2[nH]c1=O)C(O)c1ccc(Cl)cc1Cl)c1ccncc1 (stereo unspecified)
RXF 631
  GI50: > 100 µM (inactive)
DMS-114
  GI50: > 100 µM (inactive)
KM-20L2
  GI50: > 100 µM (inactive)
SNB-78
  GI50: > 100 µM (inactive)
DMS-273
  GI50: > 100 µM (inactive)
LXFL 529
  GI50: > 100 µM (inactive)
DLD-1
  GI50: > 100 µM (inactive)

## CCOc1cc2c[n+](C)c3c4cc(OC)c(OC)cc4ccc3c2cc1OC
RXF 631
  GI50: 4.07 µM (inactive)
DMS-114
  GI50: > 100 µM (inactive)
KM-20L2
  GI50: > 100 µM (inactive)
SNB-78
  GI50: > 100 µM (inactive)
LXFL 529
  GI50: > 100 µM (inactive)
HOP-18
  GI50: 60.8 µM (inactive)
DLD-1
  GI50: > 100 µM (inactive)

## Cc1cccc(C)c1NC(=O)C(=O)CC(=O)c1cccc([N+](=O)[O-])c1
XF498
  GI50: > 100 µM (inactive)
KM-20L2
  GI50: > 100 µM (inactive)
SNB-78
  GI50: > 100 µM (inactive)
DMS-273
  GI50: > 100 µM (inactive)
LXFL 529
  GI50: > 100 µM (inactive)
HOP-18
  GI50: > 100 µM (inactive)
DLD-1
  GI50: > 100 µM (inactive)

## COc1ccc(C2c3cc4c(cc3OC(O)(CO)C2C(=O)O)OCO4)c(OC)c1OC.COc1ccc(C2c3cc4c(cc3OC3(O)COC(=O)C23)OCO4)c(OC)c1OC (stereo unspecified)
XF498
  GI50: > 100 µM (inactive)
DMS-114
  GI50: > 100 µM (inactive)
KM-20L2
  GI50: > 100 µM (inactive)
SNB-78
  GI50: 59.2 µM (inactive)
DMS-273
  GI50: > 100 µM (inactive)
HOP-18
  GI50: > 100 µM (inactive)
DLD-1
  GI50: > 100 µM (inactive)

## COc1ccc([C@@H]2OC(=O)C3C2C(=O)O[C@H]3c2ccc(OC)c(OC)c2)cc1OC (stereo partly specified)
RXF 631
  GI50: > 100 µM (inactive)
XF498
  GI50: > 100 µM (inactive)
DMS-114
  GI50: > 100 µM (inactive)
KM-20L2
  GI50: > 100 µM (inactive)
SNB-78
  GI50: > 100 µM (inactive)
DMS-273
  GI50: > 100 µM (inactive)
HOP-18
  GI50: > 100 µM (inactive)

## NCCCNCCSSCCCCS(=O)O
RXF 631
  GI50: > 100 µM (inactive)
XF498
  GI50: 18.2 µM (inactive)
DMS-114
  GI50: > 100 µM (inactive)
KM-20L2
  GI50: > 100 µM (inactive)
SNB-78
  GI50: 22.8 µM (inactive)
DMS-273
  GI50: 35.8 µM (inactive)
LXFL 529
  GI50: 23 µM (inactive)
HOP-18
  GI50: > 100 µM (inactive)
DLD-1
  GI50: 45.8 µM (inactive)

## Cn1ncc2c(c1=O)Nc1ccccc1S2(=O)=O
DMS-114
  GI50: 22 µM (inactive)
KM-20L2
  GI50: > 100 µM (inactive)
SNB-78
  GI50: > 100 µM (inactive)
DMS-273
  GI50: > 100 µM (inactive)
LXFL 529
  GI50: 80.4 µM (inactive)
HOP-18
  GI50: > 100 µM (inactive)
DLD-1
  GI50: > 100 µM (inactive)

## Cc1ccc(C)c(N2C(=O)C(=O)C(c3nc4ccccc4s3)C(=O)C2=O)c1
DMS-114
  GI50: > 100 µM (inactive)
KM-20L2
  GI50: > 100 µM (inactive)
SNB-78
  GI50: > 100 µM (inactive)
DMS-273
  GI50: > 100 µM (inactive)
LXFL 529
  GI50: > 100 µM (inactive)
DLD-1
  GI50: > 100 µM (inactive)

## COc1cc(C2C(C(=O)Nc3ccc([N+](=O)[O-])cc3)=C(C)NC(C)=C2C(=O)Nc2ccc([N+](=O)[O-])cc2)ccc1O
RXF 631
  GI50: 32.5 µM (inactive)
XF498
  GI50: 23.8 µM (inactive)
DMS-114
  GI50: 24.1 µM (inactive)
KM-20L2
  GI50: 18.5 µM (inactive)
SNB-78
  GI50: 34.8 µM (inactive)
DMS-273
  GI50: 21.9 µM (inactive)
LXFL 529
  GI50: 18.3 µM (inactive)
HOP-18
  GI50: 27.6 µM (inactive)
DLD-1
  GI50: 25.6 µM (inactive)

## Cc1ns/c(=N\C(=S)N(C)C)n1C
RXF 631
  GI50: > 100 µM (inactive)
XF498
  GI50: > 100 µM (inactive)
DMS-114
  GI50: > 100 µM (inactive)
KM-20L2
  GI50: > 100 µM (inactive)
SNB-78
  GI50: > 100 µM (inactive)
DMS-273
  GI50: > 100 µM (inactive)
LXFL 529
  GI50: > 100 µM (inactive)
HOP-18
  GI50: > 100 µM (inactive)
DLD-1
  GI50: > 100 µM (inactive)

## CC(=O)C1=C(C)Cn2c(=O)c3ccccc3c(=O)n2C1
RXF 631
  GI50: > 100 µM (inactive)
DMS-114
  GI50: > 100 µM (inactive)
KM-20L2
  GI50: > 100 µM (inactive)
DMS-273
  GI50: > 100 µM (inactive)
LXFL 529
  GI50: > 100 µM (inactive)
DLD-1
  GI50: > 100 µM (inactive)

## COc1ccc(S(=O)(=O)NNS(C)(=O)=O)cc1
RXF 631
  GI50: > 100 µM (inactive)
XF498
  GI50: 60.3 µM (inactive)
DMS-114
  GI50: > 100 µM (inactive)
KM-20L2
  GI50: > 100 µM (inactive)
DMS-273
  GI50: > 100 µM (inactive)
LXFL 529
  GI50: > 100 µM (inactive)
DLD-1
  GI50: 87.5 µM (inactive)

## O=C(Nc1nc2ncn(CCOC(=O)c3ccccc3)c2c(=O)[nH]1)c1ccccc1
RXF 631
  GI50: 15.4 µM (inactive)
XF498
  GI50: 20.2 µM (inactive)
KM-20L2
  GI50: 6.9 µM (inactive)
SNB-78
  GI50: > 100 µM (inactive)
LXFL 529
  GI50: 22.7 µM (inactive)
HOP-18
  GI50: > 100 µM (inactive)

## CCOC(=O)C1=C(C(=O)OCC)C2c3ccccc3C=CN2C(C(=O)OCC)=C(SC)S1 (stereo unspecified)
DMS-114
  GI50: 52.5 µM (inactive)
KM-20L2
  GI50: > 100 µM (inactive)
SNB-78
  GI50: 79.1 µM (inactive)
DMS-273
  GI50: 63.1 µM (inactive)
LXFL 529
  GI50: 51.2 µM (inactive)
DLD-1
  GI50: > 100 µM (inactive)

## CN(C)C(c1ccccc1)C(O)c1ccccc1 (stereo unspecified)
RXF 631
  GI50: > 100 µM (inactive)
XF498
  GI50: > 100 µM (inactive)
DMS-114
  GI50: > 100 µM (inactive)
KM-20L2
  GI50: > 100 µM (inactive)
SNB-78
  GI50: > 100 µM (inactive)
DMS-273
  GI50: > 100 µM (inactive)
LXFL 529
  GI50: > 100 µM (inactive)
HOP-18
  GI50: > 100 µM (inactive)
DLD-1
  GI50: > 100 µM (inactive)

## CC(=O)Nc1ccc(-c2nnc(SCC(=O)Nc3ccc(C)cc3)o2)cc1
DMS-114
  GI50: 14.8 µM (inactive)
KM-20L2
  GI50: 19.5 µM (inactive)
SNB-78
  GI50: 16.6 µM (inactive)
DMS-273
  GI50: 15.9 µM (inactive)
LXFL 529
  GI50: 16.3 µM (inactive)
HOP-18
  GI50: 17.4 µM (inactive)
DLD-1
  GI50: 14.9 µM (inactive)

## Nc1nc2c(ncn2C2OC(CO)C(O)C2N)c(=O)[nH]1 (stereo unspecified)
RXF 631
  GI50: 79.6 µM (inactive)
XF498
  GI50: > 100 µM (inactive)
DMS-114
  GI50: > 100 µM (inactive)
SNB-78
  GI50: > 100 µM (inactive)
DMS-273
  GI50: > 100 µM (inactive)
LXFL 529
  GI50: > 100 µM (inactive)
DLD-1
  GI50: > 100 µM (inactive)

## N#C/C(=C\c1cc2ccccc2c2ccccc12)c1ccccc1
XF498
  GI50: 3.22 µM (inactive)
KM-20L2
  GI50: 3.9 µM (inactive)
SNB-78
  GI50: 4.06 µM (inactive)
DMS-273
  GI50: 3.05 µM (inactive)
LXFL 529
  GI50: 14.4 µM (inactive)
HOP-18
  GI50: 18.7 µM (inactive)
DLD-1
  GI50: 5.6 µM (inactive)

## CN(C)CCC(CCN(C)C)=NOC(=O)c1ccccc1
RXF 631
  GI50: > 100 µM (inactive)
XF498
  GI50: > 100 µM (inactive)
DMS-114
  GI50: > 100 µM (inactive)
KM-20L2
  GI50: > 100 µM (inactive)
DMS-273
  GI50: > 100 µM (inactive)
LXFL 529
  GI50: > 100 µM (inactive)
HOP-18
  GI50: > 100 µM (inactive)
DLD-1
  GI50: > 100 µM (inactive)

## CC(Oc1ccc2c(=O)cc(-c3ccccc3)oc2c1)C(=O)O (stereo unspecified)
XF498
  GI50: > 100 µM (inactive)
DMS-114
  GI50: > 100 µM (inactive)
KM-20L2
  GI50: > 100 µM (inactive)
SNB-78
  GI50: > 100 µM (inactive)
LXFL 529
  GI50: > 100 µM (inactive)
HOP-18
  GI50: > 100 µM (inactive)
DLD-1
  GI50: > 100 µM (inactive)

## Brc1ccc(/C=N/C23CC4CC(CC(C4)C2)C3)cc1
RXF 631
  GI50: > 100 µM (inactive)
XF498
  GI50: > 100 µM (inactive)
DMS-114
  GI50: > 100 µM (inactive)
KM-20L2
  GI50: > 100 µM (inactive)
SNB-78
  GI50: > 100 µM (inactive)
DMS-273
  GI50: > 100 µM (inactive)
LXFL 529
  GI50: > 100 µM (inactive)
HOP-18
  GI50: > 100 µM (inactive)
DLD-1
  GI50: > 100 µM (inactive)

## COc1ccc(NC(=O)COC(=O)c2cccc3c(=O)c4ccccc4[nH]c23)cc1
XF498
  GI50: 19.9 µM (inactive)
DMS-114
  GI50: 17.2 µM (inactive)
KM-20L2
  GI50: 21.5 µM (inactive)
SNB-78
  GI50: 22.1 µM (inactive)
LXFL 529
  GI50: 17.3 µM (inactive)
HOP-18
  GI50: 27 µM (inactive)
DLD-1
  GI50: 13.9 µM (inactive)

## Cc1cccc2[n+]1[C@H]1[C@H]([C@@H]3O[C@H]1c1ccccc13)[S+]([O-])N2 (stereo partly specified)
RXF 631
  GI50: > 100 µM (inactive)
XF498
  GI50: 20.2 µM (inactive)
DMS-114
  GI50: 22.7 µM (inactive)
KM-20L2
  GI50: 42.7 µM (inactive)
SNB-78
  GI50: 23.3 µM (inactive)
DMS-273
  GI50: 27.2 µM (inactive)
LXFL 529
  GI50: 33.7 µM (inactive)
HOP-18
  GI50: 21.2 µM (inactive)
DLD-1
  GI50: > 100 µM (inactive)

## Cn1cc(C(=O)NCCC(=N)N)cc1NC(=O)C1=[N+](C)C=C(NC(=O)c2cccc(C(=O)NC3=CC(C(=O)Nc4cc(C(=O)NCCC(=N)N)cn4C)=[N+](C)C3)c2)C1
XF498
  GI50: > 100 µM (inactive)
DMS-114
  GI50: 70.6 µM (inactive)
KM-20L2
  GI50: > 100 µM (inactive)
DMS-273
  GI50: 59.8 µM (inactive)
LXFL 529
  GI50: > 100 µM (inactive)
HOP-18
  GI50: > 100 µM (inactive)
DLD-1
  GI50: > 100 µM (inactive)

## O=C1/C(=C/c2ccc(Cl)cc2)CNC/C1=C\c1ccc(Cl)cc1
RXF 631
  GI50: 2.79 µM (inactive)
XF498
  GI50: 2.83 µM (inactive)
KM-20L2
  GI50: 2.64 µM (inactive)
SNB-78
  GI50: 2.65 µM (inactive)
DMS-273
  GI50: 1.98 µM (inactive)
LXFL 529
  GI50: 1.09 µM (active)
HOP-18
  GI50: 4.89 µM (inactive)
DLD-1
  GI50: 2.38 µM (inactive)

## N#C/C(=C\c1c[nH]c2ccccc12)C(=O)c1ccc(O)c(O)c1
XF498
  GI50: 48.8 µM (inactive)
KM-20L2
  GI50: 55.5 µM (inactive)
DMS-273
  GI50: 36.2 µM (inactive)
LXFL 529
  GI50: 39.4 µM (inactive)
HOP-18
  GI50: 38.5 µM (inactive)
DLD-1
  GI50: 47.9 µM (inactive)
